Measurements published in publication PMC10413460 (ACS Omega, 2023).
pIC50: −log10 of the molar value.

Molecular target: epidermal growth factor receptor tyrosine kinase (EGFR-TK) (Homo sapiens, UniProt P00533)
Test: ADP-Glo kinase assay, cell-free
Assay type: biochemical

Sequence of epidermal growth factor receptor tyrosine kinase (EGFR-TK) (P00533 669-1210 limits assumed): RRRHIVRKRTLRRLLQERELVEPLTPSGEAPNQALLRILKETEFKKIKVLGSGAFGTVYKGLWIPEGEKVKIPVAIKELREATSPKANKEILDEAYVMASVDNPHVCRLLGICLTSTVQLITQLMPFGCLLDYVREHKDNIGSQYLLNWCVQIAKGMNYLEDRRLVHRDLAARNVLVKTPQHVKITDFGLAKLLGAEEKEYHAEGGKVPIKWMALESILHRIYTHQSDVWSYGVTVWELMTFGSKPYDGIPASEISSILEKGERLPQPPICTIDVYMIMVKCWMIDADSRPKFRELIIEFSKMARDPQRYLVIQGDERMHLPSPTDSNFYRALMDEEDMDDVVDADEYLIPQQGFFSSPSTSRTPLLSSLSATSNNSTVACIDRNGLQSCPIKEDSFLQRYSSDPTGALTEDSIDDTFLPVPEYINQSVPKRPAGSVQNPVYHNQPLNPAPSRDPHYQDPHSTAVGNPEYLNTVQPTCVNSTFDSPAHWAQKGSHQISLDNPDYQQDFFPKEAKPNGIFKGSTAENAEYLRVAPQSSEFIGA

pIC50: 6.48
Compound: COC(=O)[C@@]12OC[C@]34[C@H]([C@@H](O)[C@@H]1O)[C@@]1(C)CC(=O)C(O)=C(C)[C@@H]1C[C@H]3OC(=O)[C@H](OC(=O)C=C(C)C)[C@@H]24 [brusatol]
